Test system: 463943-066-T-J2-PDC tumor spheroids with HUVEC/MSC, viability
Experiment: Anticancer human tumor 463943-066-T-J2-PDC patient-derived colon adenocarcinoma cell line growth inhibition [TAK]
Settings: for IC50: curve of first compound; for viability, T/C: stronger effect = lower value
In short: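 Drug combinations, each paired with TAK-243 or ipatasertib, were tested on multi-cell spheroids of 60% malignant cells, 25% HUVEC and 15% hMSC. Top concentrations were at or near the clinical Cmax (10 microM if undetermined), decreasing by half-log; viability is given as % test/control.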

[1] = second compound 0.3 µM, first compound 0.0316 µM
[2] = second compound 0.3 µM, first compound 0.1 µM
[3] = second compound 0.3 µM, first compound 0.316 µM
[4] = second compound 0.3 µM, first compound 1 µM
[5] = second compound 0.949 µM, first compound 0.0316 µM
[6] = second compound 0.949 µM, first compound 0.1 µM
[7] = second compound 0.949 µM, first compound 0.316 µM
[8] = second compound 0.949 µM, first compound 1 µM
[9] = second compound 3 µM, first compound 0.0316 µM
[10] = second compound 3 µM, first compound 0.1 µM
[11] = second compound 3 µM, first compound 0.316 µM
[12] = second compound 3 µM, first compound 1 µM
[13] = second compound 9.49 µM, first compound 0.0316 µM
[14] = second compound 9.49 µM, first compound 0.1 µM
[15] = second compound 9.49 µM, first compound 0.316 µM
[16] = second compound 9.49 µM, first compound 1 µM
[17] = second compound 30 µM, first compound 0.0316 µM
[18] = second compound 30 µM, first compound 0.1 µM
[19] = second compound 30 µM, first compound 0.316 µM
[20] = second compound 30 µM, first compound 1 µM
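Also: spheroids exposed to drugs for seven days.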
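For viability, T/C in this document: 100% = DMSO vehicle control wells.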

SMILES	IC50 (second compound 0.3 µM) [µM]	IC50 (second compound 0.949 µM) [µM]	IC50 (second compound 3 µM) [µM]	IC50 (second compound 9.49 µM) [µM]	IC50 (second compound 30 µM) [µM]	viability, T/C [1] [%]	viability, T/C [2] [%]	viability, T/C [3] [%]	viability, T/C [4] [%]	viability, T/C [5] [%]	viability, T/C [6] [%]	viability, T/C [7] [%]	viability, T/C [8] [%]	viability, T/C [9] [%]	viability, T/C [10] [%]	viability, T/C [11] [%]	viability, T/C [12] [%]	viability, T/C [13] [%]	viability, T/C [14] [%]	viability, T/C [15] [%]	also measured
COc1c(OCCCN2CCOCC2)ccc2c3n(c(=NC(=O)c4cnc(N)nc4)nc12)CCN3 + CC(C)NCC(C(=O)N1CCN(c2ncnc3c2C(C)CC3O)CC1)c1ccc(Cl)cc1	> 1	> 1	> 1	> 1	> 1	85	77.1	70.3	66.5	75.1	78.2	77.2	68.1	83.5	79.8	79.8	77	86.4	73.6	75.6	viability, T/C (second compound 0.3 µM, first compound 0.00316 µM): 91.4%; viability, T/C (second compound 0.3 µM, first compound 0.01 µM): 91.3%; viability, T/C (second compound 0.949 µM, first compound 0.00316 µM): 88.6%; viability, T/C (second compound 0.949 µM, first compound 0.01 µM): 93.1%; viability, T/C (second compound 3 µM, first compound 0.00316 µM): 93.7%; viability, T/C (second compound 3 µM, first compound 0.01 µM): 86.8%; viability, T/C (second compound 9.49 µM, first compound 0.00316 µM): 81.3%; viability, T/C (second compound 9.49 µM, first compound 0.01 µM): 85.5%; viability, T/C [16]: 71.2%; viability, T/C (second compound 30 µM, first compound 0.00316 µM): 85.6%; viability, T/C (second compound 30 µM, first compound 0.01 µM): 87.5%; viability, T/C [17]: 74.6%; viability, T/C [18]: 73.9%; viability, T/C [19]: 66.5%; viability, T/C [20]: 71.2%
Cc1nc(NC(=O)N2CCCC2C(N)=O)sc1-c1ccnc(C(C)(C)C(F)(F)F)c1 (stereo not given) + CC(C)NCC(C(=O)N1CCN(c2ncnc3c2C(C)CC3O)CC1)c1ccc(Cl)cc1	> 10	> 10	> 10	> 10	> 10	106	99.8	105	87.8	104	89.9	91.8	89.2	98	100	88.4	88.8	89.6	95.3	90.7	viability, T/C (second compound 0.3 µM, first compound 3.16 µM): 81%; viability, T/C (second compound 0.3 µM, first compound 10 µM): 79.3%; viability, T/C (second compound 0.949 µM, first compound 3.16 µM): 78.4%; viability, T/C (second compound 0.949 µM, first compound 10 µM): 78.1%; viability, T/C (second compound 3 µM, first compound 3.16 µM): 81.1%; viability, T/C (second compound 3 µM, first compound 10 µM): 75%; viability, T/C [16]: 86.9%; viability, T/C (second compound 9.49 µM, first compound 3.16 µM): 79.5%; viability, T/C (second compound 9.49 µM, first compound 10 µM): 80.7%; viability, T/C [17]: 92.7%; viability, T/C [18]: 94.4%; viability, T/C [19]: 88.2%; viability, T/C [20]: 92.8%; viability, T/C (second compound 30 µM, first compound 3.16 µM): 90.5%; viability, T/C (second compound 30 µM, first compound 10 µM): 76.6%
